ChEMBL document CHEMBL1157454, “Citral derived amides as potent bacterial NorA efflux pump inhibitors” (2008)
In brackets after ≈: the same amount, converted by molar mass. Activity calls are given as the source filed them. The calls are words filed in the database; no cut-off is given here.

Columns and labels:
Staphylococcus aureus [1] = experiment: Antimicrobial activity against Staphylococcus aureus 1199 at 100 ug/ml after 18 hrs by twofold serial dilution method; format: functional, organism-based
Staphylococcus aureus [2] = experiment: Antimicrobial activity against NorA overexpressing Staphylococcus aureus 1199B at 100 ug/ml after 18 hrs by twofold serial dilution method; format: functional, organism-based
[3] = biological target: T1, Quinolone resistance protein NorA (Staphylococcus aureus) (UniProt P0A0J7); experiment: Inhibition of NorA efflux pump in Staphylococcus aureus 1199B assessed as fold reduction of ciprofloxacin MIC at 25 ug/ml
T1 sequence (whole entry): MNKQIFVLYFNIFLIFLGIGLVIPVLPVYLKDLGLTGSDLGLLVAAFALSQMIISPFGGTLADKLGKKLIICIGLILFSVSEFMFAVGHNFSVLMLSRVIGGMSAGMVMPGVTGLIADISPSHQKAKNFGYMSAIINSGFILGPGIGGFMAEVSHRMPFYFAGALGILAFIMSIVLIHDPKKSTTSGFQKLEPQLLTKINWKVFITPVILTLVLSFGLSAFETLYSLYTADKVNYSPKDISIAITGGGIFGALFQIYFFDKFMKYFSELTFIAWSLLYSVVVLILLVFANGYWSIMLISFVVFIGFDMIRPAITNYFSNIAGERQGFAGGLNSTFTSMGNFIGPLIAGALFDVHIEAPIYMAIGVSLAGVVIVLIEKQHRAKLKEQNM

[4] = biological target: T1, Quinolone resistance protein NorA (Staphylococcus aureus); experiment: Inhibition of NorA efflux pump in Staphylococcus aureus 1199 assessed as fold reduction of ciprofloxacin MIC at 25 ug/ml
[5] = biological target: T1, Quinolone resistance protein NorA (Staphylococcus aureus); experiment: Inhibition of NorA efflux pump in Staphylococcus aureus 1199B assessed as fold reduction of ciprofloxacin MIC at 12.5 ug/ml
[6] = biological target: T1, Quinolone resistance protein NorA (Staphylococcus aureus); experiment: Inhibition of NorA efflux pump in Staphylococcus aureus 1199 assessed as fold reduction of ciprofloxacin MIC at 6.25 ug/ml
[7] = biological target: T1, Quinolone resistance protein NorA (Staphylococcus aureus); experiment: Inhibition of NorA efflux pump in Staphylococcus aureus 1199B assessed as fold reduction of ciprofloxacin MIC at 6.25 ug/ml
[8] = biological target: T1, Quinolone resistance protein NorA (Staphylococcus aureus); experiment: Inhibition of NorA efflux pump in Staphylococcus aureus 1199 assessed as fold reduction of ciprofloxacin MIC at 12.5 ug/ml
[9] = biological target: T1, Quinolone resistance protein NorA (Staphylococcus aureus)
[10] = biological target: T1, Quinolone resistance protein NorA (Staphylococcus aureus); conditions: 1199B

SMILES	Activity (Staphylococcus aureus [1])	Activity (Staphylococcus aureus [2])	fold reduction [3]	further results
CC(C)=CCC/C(C)=C/C=C/C(=O)Nc1ccccc1C	inactive	inactive	–	–
COC(=O)[C@H]1[C@H]2C[C@@H]3c4[nH]c5cc(OC)ccc5c4CCN3C[C@H]2C[C@@H](OC(=O)c2cc(OC)c(OC)c(OC)c2)[C@@H]1OC	–	–	4	fold reduction [4]: 2
CC(C)=CCC/C(C)=C/C=C/C(=O)NCc1ccccc1	inactive	inactive	4	fold reduction [5]: 2; fold reduction [4]: 2
CC(C)=CCC/C(C)=C/C=C/C(=O)O	inactive	inactive	–	–
COc1ccccc1NC(=O)/C=C/CC(C)CCC=C(C)C (stereo not given)	inactive	inactive	–	fold reduction [5]: 2
CC(C)=CCCC(C)C/C=C/C(=O)N1CCCCC1 (stereo not given)	inactive	inactive	–	fold reduction [5]: 2
CC(C)=CCC/C(C)=C/C=C/C(=O)N(C(C)C)C(C)C	inactive	inactive	4	fold reduction [4]: 2
C/C(C=O)=C\CCC(C)CCCC(=O)NCc1ccccc1 (stereo not given)	inactive	inactive	–	–
CCCCCCCCNC(=O)/C=C/CC(C)CCC=C(C)C (stereo not given)	inactive	inactive	–	–
CCCCCCCCNC(=O)/C=C/CC(C)CC/C=C(\C)C=O (stereo not given)	inactive	inactive	4	–
CC(C)=CCC/C(C)=C/C=C/C(=O)N1CCOCC1	inactive	inactive	–	–
COc1ccccc1NC(=O)/C=C/CC(C)CC/C=C(\C)C=O (stereo not given)	inactive	inactive	4	–
CC(C)c1cc2c(c(O)c1O)[C@@]1(C(=O)O)CCCC(C)(C)[C@@H]1CC2	–	–	2	fold reduction [4]: 2
COc1ccccc1NC(=O)/C=C/C=C(\C)CCC=C(C)C	inactive	inactive	4	fold reduction [4]: 2
C/C(C=O)=C\CC/C(C)=C/C=C/C(=O)N1CCCCC1	inactive	inactive	4	fold reduction [6]: 2; fold reduction [7]: 2
CC(C)=CCC/C(C)=C/C=C/C(=O)N1CCCCC1	inactive	inactive	–	fold reduction [8]: 2; fold reduction [5]: 2

SMILES	Activity (Staphylococcus aureus [1])	Activity (Staphylococcus aureus [2])	fold reduction [3]	further results
COc1ccccc1NC(=O)CCCC(C)CCC=C(C)C (stereo not given)	inactive	inactive	–	–
C/C(C=O)=C\CC/C(C)=C/C=C/C(=O)N1CCCC1	inactive	inactive	–	–
C/C(C=O)=C\CCC(C)CCCC(=O)N1CCCCC1 (stereo not given)	inactive	inactive	–	–
CC(C)=CCC/C(C)=C/C=C/C(=O)NCC(C)C	inactive	inactive	–	–
O=C(/C=C/C=C/c1ccc2c(c1)OCO2)N1CCCCC1	–	–	–	MIC [9]: 2 µg/mL (≈ 7.01 µM); MIC [10]: 2 µg/mL (≈ 7.01 µM)
CC(C)=CCC/C(C)=C/C=C/C(=O)NC(C)C	inactive	inactive	–	–
CC(C)=CCC/C(C)=C/C=C/C(=O)Nc1ccccc1	inactive	inactive	–	–
CCCCCCCCNC(=O)CCCC(C)CCC=C(C)C (stereo not given)	inactive	inactive	–	–
COc1ccc(NC(=O)/C=C/C=C(\C)CCC=C(C)C)cc1	inactive	inactive	–	–
C/C(C=O)=C\CC/C(C)=C/C=C/C(=O)N1CCOCC1	inactive	inactive	–	–
C/C(C=O)=C\CC/C(C)=C/C=C/C(=O)N(C(C)C)C(C)C	inactive	inactive	4	fold reduction [5]: 2
CC(C)=CCC/C(C)=C/C=C/C(=O)N1CCCC1	inactive	inactive	–	–
CC(C)=CCCC(C)C/C=C/C(=O)NCc1ccccc1 (stereo not given)	inactive	inactive	–	MIC [9]: 4 µg/mL (≈ 14 µM); MIC [10]: 4 µg/mL (≈ 14 µM)
C/C(C=O)=C\CC/C(C)=C/C=C/C(=O)NCc1ccccc1	inactive	inactive	4	fold reduction [5]: 2; fold reduction [4]: 2
CCCCCCCCNC(=O)/C=C/C=C(\C)CCC=C(C)C	inactive	inactive	4	fold reduction [8]: 2; fold reduction [5]: 2; fold reduction [4]: 4
CCCCCCCCNC(=O)/C=C/C=C(\C)CC/C=C(\C)C=O	inactive	inactive	4	fold reduction [8]: 2; fold reduction [5]: 2; fold reduction [4]: 2
